The numbers were not newly measured in patent US20030134851A1, “Methods and compositions for providing glutamine” (priority 2001, published 2003), which cites them from elsewhere.

For the data set the following is noted: rodents; cited from earlier work.

On to `O=C1CC[C@@H](C(=O)O)N1` [pyroglutamic acid], for which the Neurotoxicity result is recorded as “is a neurotoxin in rodents”.
